{"source": "paper PMC7321301", "about": "“Characteristics of New Peptides GQLGEHGGAGMG, GEHGGAGMGGGQFQPV, EQGFLPGPEESGR, RLARAGLAQ, YGNPVGGVGH, and GNPVGGVGHGTTGT as Inhibitors of Enzymes Involved in Metabolic Syndrome and Antimicrobial Potential” (Molecules, 2020)", "key": {"COX-1": {"target": "T1, COX-1 (Ovis aries, UniProt P05979)", "T1 sequence (P05979 25-600)": "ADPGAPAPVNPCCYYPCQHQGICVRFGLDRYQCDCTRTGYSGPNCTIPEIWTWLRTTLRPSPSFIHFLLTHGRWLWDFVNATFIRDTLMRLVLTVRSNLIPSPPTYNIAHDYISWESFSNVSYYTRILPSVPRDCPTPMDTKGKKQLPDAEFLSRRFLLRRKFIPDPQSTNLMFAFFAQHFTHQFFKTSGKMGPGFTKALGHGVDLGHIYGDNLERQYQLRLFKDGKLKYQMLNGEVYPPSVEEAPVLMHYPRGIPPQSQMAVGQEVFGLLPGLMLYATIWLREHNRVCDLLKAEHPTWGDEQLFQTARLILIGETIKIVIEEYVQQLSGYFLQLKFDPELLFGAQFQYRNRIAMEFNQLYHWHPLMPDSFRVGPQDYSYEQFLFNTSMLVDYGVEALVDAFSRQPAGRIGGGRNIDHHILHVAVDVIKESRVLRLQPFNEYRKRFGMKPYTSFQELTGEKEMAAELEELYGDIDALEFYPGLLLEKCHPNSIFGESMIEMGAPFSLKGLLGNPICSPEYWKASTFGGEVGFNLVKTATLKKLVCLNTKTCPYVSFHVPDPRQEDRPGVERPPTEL", "assay": "COX-1 inhibitory activity (COX Activity Assay kit) and kinetics", "format": "biochemical", "experimental": "For all inhibitory activity, IC50 was calculated. […] The IC50 value was calculated from the plotted graph of the inhibition activity for the five different peptide concentrations. The effect of the peptide on COX-1 and COX-2 was measured using the COX Activity Assay kit from Cayman Chemical (Item No. 760151, Ann Arbor, MI, USA). COX activity was determined according to the instructions provided with the kit. The enzyme activity was assayed by calorimetric measurement of the appearance of oxidized N,N,N′,N′-Tetramethyl-p-phenylenediamine (TMPD) at 590 nm using BioTek Microplate Readers (Epoch™ 2 BioTek, Bad Friedrichshall, Germany). […] The kinetic parameters were evaluated by Lineweaver–Burk’s method. The reaction conditions were the same as in the enzyme inhibitory activity assay."}, "[1]": {"target": "angiotensin converting enzyme (ACE) (Homo sapiens, UniProt P12821)", "sequence (P12821 30-1306, species assumed)": "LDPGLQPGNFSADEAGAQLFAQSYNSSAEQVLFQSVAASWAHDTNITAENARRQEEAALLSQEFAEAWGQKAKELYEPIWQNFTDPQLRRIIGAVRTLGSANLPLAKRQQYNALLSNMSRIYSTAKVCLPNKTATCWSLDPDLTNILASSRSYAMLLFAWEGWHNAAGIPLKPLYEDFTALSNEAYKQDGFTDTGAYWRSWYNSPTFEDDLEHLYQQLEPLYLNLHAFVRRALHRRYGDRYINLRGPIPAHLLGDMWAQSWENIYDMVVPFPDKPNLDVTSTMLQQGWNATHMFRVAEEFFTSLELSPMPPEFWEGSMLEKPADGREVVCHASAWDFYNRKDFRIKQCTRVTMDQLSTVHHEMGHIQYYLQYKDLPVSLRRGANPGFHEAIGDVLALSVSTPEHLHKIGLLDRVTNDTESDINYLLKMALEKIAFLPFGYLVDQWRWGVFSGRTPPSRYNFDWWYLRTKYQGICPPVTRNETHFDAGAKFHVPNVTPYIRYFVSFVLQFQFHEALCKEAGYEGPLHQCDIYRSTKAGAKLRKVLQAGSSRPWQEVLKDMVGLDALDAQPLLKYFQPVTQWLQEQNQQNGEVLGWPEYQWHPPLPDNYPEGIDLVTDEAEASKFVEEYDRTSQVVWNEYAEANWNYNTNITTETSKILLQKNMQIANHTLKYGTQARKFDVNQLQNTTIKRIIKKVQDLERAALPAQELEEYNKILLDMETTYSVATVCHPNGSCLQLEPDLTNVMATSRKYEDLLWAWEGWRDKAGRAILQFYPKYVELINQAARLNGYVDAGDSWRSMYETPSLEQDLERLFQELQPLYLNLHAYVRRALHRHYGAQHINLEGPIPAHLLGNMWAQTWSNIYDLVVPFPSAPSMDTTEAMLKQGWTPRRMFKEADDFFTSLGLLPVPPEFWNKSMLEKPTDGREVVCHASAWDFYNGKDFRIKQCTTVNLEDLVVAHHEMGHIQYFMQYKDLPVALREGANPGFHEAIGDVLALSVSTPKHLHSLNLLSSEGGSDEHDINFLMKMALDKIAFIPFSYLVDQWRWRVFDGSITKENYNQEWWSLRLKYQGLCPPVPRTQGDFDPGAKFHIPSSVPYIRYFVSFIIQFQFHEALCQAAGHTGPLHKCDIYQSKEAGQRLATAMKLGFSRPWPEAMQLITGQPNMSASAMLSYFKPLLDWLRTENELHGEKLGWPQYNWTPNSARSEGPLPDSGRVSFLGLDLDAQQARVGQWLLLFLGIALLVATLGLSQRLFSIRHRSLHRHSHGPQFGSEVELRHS", "assay": "ACE inhibitor activity (HHL substrate, OPA) and kinetics", "format": "biochemical", "details": "mean ± SD, triplicate; nd = not detected", "experimental": "For all inhibitory activity, IC50 was calculated. The IC50 value defined as the concentration of the extract inhibiting 50% of the enzyme activity was determined by measuring the enzyme inhibitory activity and peptide contents in each sample. The IC50 value was calculated from the plotted graph of the inhibition activity for the five different peptide concentrations.\nThe angiotensin converting enzyme was prepared according to the method described by Karaś et al.. For ACE inhibitor activity, 5 μL of ACE was mixed with 5 μL of the samples and, after preincubation at 37 °C for 5 min, 5 μL of a 5 mM N-Hippuryl-L-histidyl-L-leucine (HHL) solution was added. The reaction was carried out at 37 °C for 60 min. Next, 0.1 M borate buffer with 0.2 M NaOH and 70 μL of an o-phthaldialdehyde OPA solution (20 mg/mL OPA in methanol) were added. The absorbance at 390 nm was measured using BioTek Microplate Readers ([…]).\nSubstrate solutions (5.0, 10.0, 15.0, and 20.0 mM) were prepared and used to determine the Michaelis constant (Km), the inhibition constant (Ki), and the maximum velocity (Vmax) of enzymes. The kinetic parameters were evaluated by Lineweaver–Burk’s method. The reaction conditions were the same as in the enzyme inhibitory activity assay."}, "HECa10 cells": {"test_system": "HECa10 cells", "assay": "Neutral red (NR) test", "format": "cell-based, murine", "details": "24-h incubation, 0.1–100 µg/mL", "experimental": "The study was conducted according to the procedure described by Rokicki et al.. HECa10 cells after 80–90% confluence were trypsinized (3 min, 37 °C), centrifuged (300 g, 5 min), counted, and plated in 96-well plates at a concentration of 1 × 10^4 cells/well. Then, 24 h after seeding, cells were washed with phosphate-buffered saline (PBS) solution and culture medium (Dulbecco’s Modified Eagle Medium (DMEM) + 10% fetal bovine serum (FBS) + antibiotics, all from Life Technologies, Warsaw, Poland) was added with test factors in concentrations: 0.1; 1; 5; 10; 50; 100 µg/mL). Then, 24 h after addition of the compounds, proliferation tests (MTT, NR, LDH) were performed. The color intensity was determined using a Fluostar Omega microplate reader. Results are presented as the mean ± SD of 3 independent experiments (n = 12).\nThe cells were seeded in a 96-well culture plate at a concentration of 1 × 10^4 cells/well. Then, 24 h after seeding, the cells were rinsed twice with PBS (Life Technologies, Poland) and resuspended in fresh growth medium. Peptide fractions were added at concentrations of 0 (control), 0.1, 1, 5, 10, 50, and 100 µg/mL. After 24 h of incubation with the proteins, the uptake of the neutral red (NR kit, Sigma Aldrich, Poznań, Poland,) was assessed. The absorption was measured at a wavelength of 540 nm with the background cutoff at 690 nm (FLUOstar Omega, BMG Labtech GmbH, Ortenberg, Germany). The results are presented as the percentage of the control values (mean ± SD). Each assay was performed in triplicate (n = 18)."}}, "note": "No end group written: not given here."}
{"sequence": "EQGFLPGPEESGR [ER-13, EQGFLPGPEESGR]", "values": [{"measurement": "IC50", "setting": "COX-1", "value": 4.78, "unit": "µM"}, {"measurement": "IC50", "setting": "[1]", "value": 457, "unit": "µM"}, {"measurement": "NR test, HECa10 cell count compared to control", "setting": "HECa10 cells", "value": "no statistically significant differences"}]}
{"sequence": "RLARAGLAQ [RQ-9, RLARAGLAQ]", "values": [{"measurement": "IC50", "setting": "COX-1", "value": 0.325, "unit": "µM"}, {"measurement": "IC50 ACE", "setting": "[1]", "value": "no inhibitory effect"}, {"measurement": "NR test, HECa10 cell count compared to control", "setting": "HECa10 cells", "value": "no statistically significant differences"}]}
{"sequence": "GEHGGAGMGGGQFQPV [GV-16, GEHGGAGMGGGQFQPV]", "values": [{"measurement": "IC50", "setting": "COX-1", "value": 8, "unit": "µM"}, {"measurement": "IC50", "setting": "[1]", "value": 490, "unit": "µM"}, {"measurement": "NR test, HECa10 cell count compared to control", "setting": "HECa10 cells", "value": "no statistically significant differences"}]}
{"sequence": "GNPVGGVGHGTTGT [GT-14, GNPVGGVGHGTTGT]", "values": [{"measurement": "IC50", "setting": "COX-1", "value": 12.3, "unit": "µM"}, {"measurement": "IC50", "setting": "[1]", "value": 434, "unit": "µM"}, {"measurement": "NR test, HECa10 cell count compared to control", "setting": "HECa10 cells", "value": "no statistically significant differences"}]}
{"sequence": "YGNPVGGVGH [YH-10, YGNPVGGVGH]", "values": [{"measurement": "IC50", "setting": "COX-1", "value": 17.4, "unit": "µM"}, {"measurement": "IC50", "setting": "[1]", "value": 522, "unit": "µM"}, {"measurement": "NR test, HECa10 cell count compared to control", "setting": "HECa10 cells", "value": "declined statistically significantly"}]}
{"sequence": "GQLGEHGGAGMG [GG-12, GQLGEHGGAGMG]", "values": [{"measurement": "IC50", "setting": "COX-1", "value": 7.11, "unit": "µM"}, {"measurement": "IC50", "setting": "[1]", "value": 525, "unit": "µM"}, {"measurement": "NR test, HECa10 cell count compared to control", "setting": "HECa10 cells", "value": "no statistically significant differences"}]}
